Data from ChEMBL document CHEMBL1141418 (J Med Chem, 2007).
Positions of bridges follow the written chain, without caps; N, C: chain ends. Non-standard residues stand in square brackets, D forms with d. Residues, ends and D or L forms follow the SMILES beside them. Orn = NCCC[C@H](N)C(=O)O; Dab = NCC[C@H](N)C(=O)O; Dap = NC[C@H](N)C(=O)O; Mpa = O=C(O)CCS

Key:
Rattus norvegicus [1] = species: Rattus norvegicus; assay: Vasopressor activity in rat; format: functional
[2] = biological target: T1, Oxytocin receptor (Homo sapiens) (UniProt P30559); assay: Activity at OT receptor assessed as oxytocic activity in absence of magnesium; format: functional; settings: filed as agonist
T1 sequence (whole entry): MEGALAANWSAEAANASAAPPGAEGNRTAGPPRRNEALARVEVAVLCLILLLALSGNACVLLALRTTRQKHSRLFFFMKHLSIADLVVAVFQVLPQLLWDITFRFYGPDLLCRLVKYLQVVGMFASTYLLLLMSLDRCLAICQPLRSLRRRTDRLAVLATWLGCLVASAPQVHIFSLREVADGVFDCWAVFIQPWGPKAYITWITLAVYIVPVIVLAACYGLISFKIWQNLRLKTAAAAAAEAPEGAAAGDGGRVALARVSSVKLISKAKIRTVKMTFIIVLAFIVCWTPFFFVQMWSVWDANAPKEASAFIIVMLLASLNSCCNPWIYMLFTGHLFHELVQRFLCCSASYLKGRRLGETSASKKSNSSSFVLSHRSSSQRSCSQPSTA

Rattus norvegicus [3] = species: Rattus norvegicus; assay: Antidiuretic activity in rat; format: functional, Urine
Vasopressin V2 receptor = Vasopressin V2 receptor (Rattus norvegicus, UniProt Q00788); assay: Displacement of [3H]AVP from vasopressin V2 receptor in rat kidney membranes; format: cell membranes, Membrane
Vasopressin V1a receptor = Vasopressin V1a receptor (Rattus norvegicus, UniProt P30560); assay: Displacement of [3H]AVP from vasopressin V1a receptor in rat liver membrane; format: cell membranes
Oxytocin receptor = biological target: T2, Oxytocin receptor (Rattus norvegicus, UniProt P70536); assay: Displacement of [3H]AVP from rat OT receptor expressed in CHO cells; format: cell-based
T2 sequence (P70536 whole entry): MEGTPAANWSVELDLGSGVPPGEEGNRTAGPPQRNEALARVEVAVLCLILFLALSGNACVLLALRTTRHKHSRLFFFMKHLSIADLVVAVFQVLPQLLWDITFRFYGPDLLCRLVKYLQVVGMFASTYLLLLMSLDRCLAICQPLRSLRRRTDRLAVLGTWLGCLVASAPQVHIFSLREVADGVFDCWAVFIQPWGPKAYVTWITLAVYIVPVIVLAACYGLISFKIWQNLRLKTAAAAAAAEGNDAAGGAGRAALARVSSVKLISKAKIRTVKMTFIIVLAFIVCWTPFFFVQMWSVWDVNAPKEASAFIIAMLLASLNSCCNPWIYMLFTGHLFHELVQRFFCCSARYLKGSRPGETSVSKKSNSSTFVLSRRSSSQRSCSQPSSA

Chain of Vasopressin V2 receptor (Q00788 whole entry): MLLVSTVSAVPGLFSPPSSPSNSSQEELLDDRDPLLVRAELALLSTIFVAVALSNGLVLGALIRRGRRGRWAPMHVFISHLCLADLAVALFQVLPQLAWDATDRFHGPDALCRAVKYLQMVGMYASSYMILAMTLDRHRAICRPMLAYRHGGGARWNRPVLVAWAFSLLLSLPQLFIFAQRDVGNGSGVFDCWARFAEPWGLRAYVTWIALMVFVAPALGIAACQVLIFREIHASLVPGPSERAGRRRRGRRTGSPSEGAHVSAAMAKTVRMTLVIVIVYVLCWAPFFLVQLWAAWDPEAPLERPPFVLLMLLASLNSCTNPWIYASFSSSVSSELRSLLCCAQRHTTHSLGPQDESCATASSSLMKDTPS
Chain of Vasopressin V1a receptor (P30560 whole entry): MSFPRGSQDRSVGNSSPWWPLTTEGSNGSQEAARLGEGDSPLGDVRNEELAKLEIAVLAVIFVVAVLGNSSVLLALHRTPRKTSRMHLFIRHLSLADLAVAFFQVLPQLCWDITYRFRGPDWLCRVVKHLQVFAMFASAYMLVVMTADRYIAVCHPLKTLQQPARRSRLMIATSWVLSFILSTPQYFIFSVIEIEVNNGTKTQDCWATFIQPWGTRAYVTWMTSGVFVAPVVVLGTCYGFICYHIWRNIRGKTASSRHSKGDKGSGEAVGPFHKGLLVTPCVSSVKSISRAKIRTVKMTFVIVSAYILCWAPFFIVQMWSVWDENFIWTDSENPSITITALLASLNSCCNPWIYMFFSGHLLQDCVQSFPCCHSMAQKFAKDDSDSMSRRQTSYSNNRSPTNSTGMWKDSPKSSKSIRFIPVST

Activity [2] [U/mg]	Ki (Vasopressin V2 receptor)	Ki (Vasopressin V1a receptor)	Structure (SMILES)	Activity (Rattus norvegicus [1]) [U/mg]	Activity (Rattus norvegicus [3]) [U/mg]	Activity (Rattus norvegicus [1]; filed as antagonist)	Ki (Oxytocin receptor)
12	–	–	NCCCC[C@H](NC(=O)[C@@H]1CCCN1C(=O)[C@@H]1CSSCCC(=O)N[C@@H](Cc2ccc(O)cc2)C(=O)N[C@@H](Cc2ccccc2)C(=O)N[C@@H](CCC(N)=O)C(=O)N[C@@H](CC(N)=O)C(=O)N1)C(=O)NCC(N)=O	145	550	–	–
15	–	–	NCCC[C@H](NC(=O)[C@@H]1CCCN1C(=O)[C@@H]1CSSCCC(=O)N[C@@H](Cc2ccc(O)cc2)C(=O)N[C@@H](Cc2ccccc2)C(=O)N[C@@H](CCC(N)=O)C(=O)N[C@@H](CC(N)=O)C(=O)N1)C(=O)NCC(N)=O	355	486	–	–
–	69 nM (antagonist)	450 nM (antagonist)	N=C(N)NCCC[C@H](NC(=O)[C@@H]1CCCN1C(=O)[C@@H]1CSSCCC(=O)N[C@H](Cc2cccnc2)C(=O)N[C@@H](Cc2ccccc2)C(=O)N[C@@H](CCC(N)=O)C(=O)N[C@@H](CC(N)=O)C(=O)N1)C(=O)NCC(N)=O	–	1	Antagonist	–
–	3.1 nM (antagonist)	1250 nM (antagonist)	CC(C)C[C@@H]1NC(=O)[C@H](Cc2ccccc2)NC(=O)[C@H](Cc2ccc(O)cc2)NC(=O)CCSSC[C@@H](C(=O)N2CCC[C@H]2C(=O)N[C@@H](CCCN=C(N)N)C(=O)NCC(N)=O)NC(=O)[C@H](CC(N)=O)NC1=O ([Mpa]YFLNCPRG-NH2; disulfide 1-6)	–	–	–	–
0.67	–	–	CC(C)C[C@@H]1NC(=O)[C@H](Cc2ccccc2)NC(=O)[C@H](Cc2ccc(O)cc2)NC(=O)CCSSC[C@@H](C(=O)N2CCC[C@H]2C(=O)N[C@@H](CCCNC(=N)N)C(=O)NCC(N)=O)NC(=O)[C@H](CC(N)=O)NC1=O ([Mpa]YFLNCPRG-NH2; disulfide 1-6)	3.11	378	–	–
0.27	210 nM (antagonist)	1000 nM (antagonist)	CC(C)C[C@@H]1NC(=O)[C@H](Cc2ccccc2)NC(=O)[C@H](Cc2ccc(O)cc2)NC(=O)CCSSC[C@@H](C(=O)N2CCC[C@H]2C(=O)N[C@@H](CCN)C(=O)NCC(N)=O)NC(=O)[C@H](CC(N)=O)NC1=O ([Mpa]YFLNCP[Dab]G-NH2; disulfide 1-6)	3.5	5.7	–	41 nM (antagonist)
–	425 nM (antagonist)	1400 nM (antagonist)	CC(C)C[C@@H]1NC(=O)[C@H](Cc2ccccc2)NC(=O)[C@H](Cc2ccc(O)cc2)NC(=O)CCSSC[C@@H](C(=O)N2CCC[C@H]2C(=O)N[C@@H](CCCN)C(=O)NCC(N)=O)NC(=O)[C@H](CC(N)=O)NC1=O ([Mpa]YFLNCP[Orn]G-NH2; disulfide 1-6)	3.1	5.7	–	–
25	–	–	NCC[C@H](NC(=O)[C@@H]1CCCN1C(=O)[C@@H]1CSSCCC(=O)N[C@@H](Cc2ccc(O)cc2)C(=O)N[C@@H](Cc2ccccc2)C(=O)N[C@@H](CCC(N)=O)C(=O)N[C@@H](CC(N)=O)C(=O)N1)C(=O)NCC(N)=O ([Mpa]YFQNCP[Dab]G-NH2; disulfide 1-6)	385	463	–	–
0.9	–	–	NC[C@H](NC(=O)[C@@H]1CCCN1C(=O)[C@@H]1CSSCCC(=O)N[C@@H](Cc2ccc(O)cc2)C(=O)N[C@@H](Cc2ccccc2)C(=O)N[C@@H](CCC(N)=O)C(=O)N[C@@H](CC(N)=O)C(=O)N1)C(=O)NCC(N)=O ([Mpa]YFQNCP[Dap]G-NH2; disulfide 1-6)	8.7	165	–	–
–	0.2 nM (antagonist)	12.9 nM (antagonist)	N=C(N)NCCC[C@@H]1NC(=O)[C@H](Cc2ccccc2)NC(=O)[C@H](Cc2ccc(O)cc2)NC(=O)CCSSC[C@@H](C(=O)N2CCC[C@H]2C(=O)N[C@@H](CCCN=C(N)N)C(=O)NCC(N)=O)NC(=O)[C@H](CC(N)=O)NC1=O ([Mpa]YFRNCPRG-NH2; disulfide 1-6)	–	–	–	–
–	–	–	NC(=O)CNC(=O)[C@H](CCCN=C(N)N)NC(=O)[C@@H]1CCCN1C(=O)[C@@H]1CSSCCC(=O)N[C@@H](Cc2ccc(O)cc2)C(=O)N[C@@H](Cc2ccccc2)C(=O)N[C@@H](CCCN=C(N)N)C(=O)N[C@@H](CC(N)=O)C(=O)N1 ([Mpa]YFRNCPRG-NH2; disulfide 1-6)	159.93	748.32	–	–
–	0.3 nM (antagonist)	60 nM (antagonist)	CC(C)[C@@H]1NC(=O)[C@H](Cc2ccccc2)NC(=O)[C@H](Cc2ccc(O)cc2)NC(=O)CCSSC[C@@H](C(=O)N2CCC[C@H]2C(=O)N[C@@H](CCCN=C(N)N)C(=O)NCC(N)=O)NC(=O)[C@H](CC(N)=O)NC1=O ([Mpa]YFVNCPRG-NH2; disulfide 1-6)	–	–	–	–
–	–	–	CC(C)[C@@H]1NC(=O)[C@H](Cc2ccccc2)NC(=O)[C@H](Cc2ccc(O)cc2)NC(=O)CCSSC[C@@H](C(=O)N2CCC[C@H]2C(=O)N[C@@H](CCCNC(=N)N)C(=O)NCC(N)=O)NC(=O)[C@H](CC(N)=O)NC1=O ([Mpa]YFVNCPRG-NH2; disulfide 1-6)	51	1150	–	–
–	0.26 nM (antagonist)	316 nM (antagonist)	CC(C)[C@@H]1NC(=O)[C@H](Cc2ccccc2)NC(=O)[C@H](Cc2ccc(O)cc2)NC(=O)CCSSC[C@@H](C(=O)N2CCC[C@H]2C(=O)N[C@H](CCCNC(=N)N)C(=O)NCC(N)=O)NC(=O)[C@H](CC(N)=O)NC1=O ([Mpa]YFVNCP[dR]G-NH2; disulfide 1-6)	<0.01	1230	–	–
–	3.4 nM (antagonist)	900 nM (antagonist)	NCCC[C@@H]1NC(=O)[C@H](Cc2ccccc2)NC(=O)[C@H](Cc2ccc(O)cc2)NC(=O)CCSSC[C@@H](C(=O)N2CCC[C@H]2C(=O)N[C@@H](CCCN=C(N)N)C(=O)NCC(N)=O)NC(=O)[C@H](CC(N)=O)NC1=O ([Mpa]YF[Orn]NCPRG-NH2; disulfide 1-6)	1.54	260.32	–	–
–	0.8 nM (antagonist)	–	N=C(N)NCCC[C@@H](NC(=O)[C@@H]1CCCN1C(=O)[C@@H]1CSSCCC(=O)N[C@@H](Cc2ccc(O)cc2)C(=O)N[C@@H](Cc2ccccc2)C(=O)N[C@@H](CCC(N)=O)C(=O)N[C@@H](CC(N)=O)C(=O)N1)C(=O)NCC(N)=O (stereo in doubt; form 1) [DESMOPRESSIN]	346	1745	–	–
–	0.3 nM (antagonist)	–	N=C(N)NCCC[C@@H](NC(=O)[C@@H]1CCCN1C(=O)[C@@H]1CSSCCC(=O)N[C@@H](Cc2ccc(O)cc2)C(=O)N[C@@H](Cc2ccccc2)C(=O)N[C@@H](CCC(N)=O)C(=O)N[C@@H](CC(N)=O)C(=O)N1)C(=O)NCC(N)=O (stereo in doubt; form 2) [DESMOPRESSIN]	0.39	1200	–	–
–	–	–	NC(=O)CC[C@@H]1NC(=O)[C@H](Cc2ccccc2)NC(=O)[C@H](Cc2ccc(O)cc2)NC(=O)[C@@H](N)CSSC[C@@H](C(=O)N2CCC[C@H]2C(=O)N[C@@H](CCCN=C(N)N)C(=O)NCC(N)=O)NC(=O)[C@H](CC(N)=O)NC1=O [VASOPRESSIN]	–	–	–	1.17 nM (antagonist)
